Experiments:
Type in all cases: cell-based
[1] = system: HCT-116 wild-type cells; experiment: Inhibitory activity on proliferation of HCT-116 wild-type cells (Cell-Titer Glo); conditions: Homo sapiens, 144 h, incubated 6 d, 0-10,000 nM
Protocol: (§1) Materials and cells: HCT-116 wild-type cells were purchased from Kyinno Biotechnology (China); RPMI-1640 medium, and fetal bovine serum were purchased from Thermo Fisher (United States); 384-well plates were purchased from PerkinElmer (United States); Cell-Titer Glo kit was purchased from Promega (United States).
Cell culture: HCT-116 wild-type cells were cultured in RPMI-1640 medium containing 10% fetal bovine serum at 37°C and 5% carbon dioxide. Only cells in the logarithmic growth phase could be used for the test.
Test of cell proliferation activity: Cell-Titer Glo kit was used to test the proliferation inhibitory activity of the compound on HCT-116 wild-type cells. The cell concentration was adjusted, rendering that cells were inoculated into a 384-well plate at 40 µL per well and incubated overnight at 37°C and 5% carbon dioxide. 80 nL of the compound was added to each well to reach a final concentration of 0-10,000 nM (starting concentration 10,000 nM, 2.5-fold dilution, 10 points), and the cell plate with 0.2% DMSO content was incubated at 37°C and 5% carbon dioxide for 6 d. 40 µL of Cell-Titer Glo reagent was added to test cell viability.

[2] = system: HCT-116 MTAP(-/-)deleted cells; experiment: Inhibitory activity on proliferation of HCT-116 MTAP(-/-)deleted cells (Cell-Titer Glo); conditions: Homo sapiens, 144 h, incubated 6 d, 0-1,000 nM
Protocol: as §1, with “MTAP(-/-)deleted” for “wild-type”
Cell culture: HCT116 MTAP(-/-)deleted cells were cultured with RPMI 1640 medium containing 10% fetal bovine serum at 37°C in 5% carbon dioxide. Only cells in the logarithmic growth phase could be used for the test.
(§2) Test of inhibitory activity on cell proliferation: The Cell-Titer Glo kit was used to test the proliferation inhibitory activity of the compounds on HCT-116 MTAP(-/-)deleted cells. The cell concentration was adjusted, rendering that cells were inoculated into a 384-well plate at 40 µL per well and incubated overnight at 37°C and 5% carbon dioxide. 80 nL of the compound was added into each well to reach a final concentration of 0-1,000 nM (starting concentration 1,000 nM, 2.5-fold dilution, 10 points), and the cell plate with 0.2% DMSO content was incubated at 37°C and 5% carbon dioxide for 6 d. 40 µL of Cell-Titer Glo reagent was added to test cell viability.

[3] = system: LU99 MTAP overexpressing cells; experiment: Inhibitory activity on proliferation of LU99 MTAP overexpressing cells (Cell-Titer Glo); conditions: Homo sapiens, Lu-99, 144 h, incubated 6 d, 0-10,000 nM
Protocol: (§3) Materials and cells: LU99 MTAP overexpressing cell line was purchased from Kyinno Biotechnology (China); cell culture medium and fetal bovine serum were purchased from Thermo Fisher Scientific (USA); 384-well plates were purchased from PerkinElmer (USA); Cell-Titer Glo kits were purchased from Promega (USA).
Cell culture: LU99 MTAP overexpressing cells were cultured with medium containing 10% fetal bovine serum at 37°C in 5% carbon dioxide. Only cells in the logarithmic growth phase could be used for the test.
Test of inhibitory activity on cell proliferation: The Cell-Titer Glo kit was used to test the proliferation inhibitory activity of the compounds on LU99 MTAP overexpressing cells. The cell concentration was adjusted, rendering that cells were inoculated into a 384-well plate at 40 µL per well and incubated overnight at 37°C and 5% carbon dioxide. 40 nL of the compound was added to each well to reach a final concentration of 0-10,000 nM (starting concentration 10,000 nM, 2.5-fold dilution, 10 points), and the cell plate with 0.2% DMSO content was incubated at 37°C and 5% carbon dioxide for 6 d. 40 µL of Cell-Titer Glo reagent was added to test cell viability.

[4] = system: LU99 MTAP(-/-)deleted cells; experiment: Inhibitory activity on proliferation of LU99 MTAP(-/-)deleted cells (Cell-Titer Glo); conditions: Homo sapiens, Lu-99, 144 h, incubated 6 d, 0-1,000 nM
Protocol: as §3, with “deleted” for “overexpressing”
Cell culture: LU99 MTAP(-/-)deleted cells were cultured with medium containing 10% fetal bovine serum at 37°C in 5% carbon dioxide. Only cells in the logarithmic growth phase could be used for the test.
as §2, with “on LU99” for “on HCT-116”, “dioxide. 40” for “dioxide. 80”, “added to” for “added into”

| SMILES | IC50 [1] [nM] | IC50 [2] [nM] | IC50 [3] [nM] | IC50 [4] [nM] |
| --- | --- | --- | --- | --- |
| CN(C(=O)c1ccc2nc(N)c3cnn(C)c3c2c1)C1COC(C)(C)c2cc(C(F)(F)F)ccc21 (stereo not drawn) [Example 1, 4-amino-N-(1,1-dimethyl-7-(trifluoromethyl)isochroman-4-yl)-N,1-dimethyl-1H-pyrazolo [4,3-c] quinoline-8-carboxamide] | 1200 | 5.2 |  |  |
| CN(C(=O)c1ccc2nc(N)c3c(c2c1)OCCO3)C1COC(C)(C)c2cc(C(F)(F)F)ccc21 (stereo not drawn) [Example 2, 5-Amino-N-(1,1-dimethyl-7-(trifluoromethyl)isochroman-4-yl)-N-methyl-2,3-dihydro-[1,4]dioxa[2,3-c]quinoline-9-carboxamide] | > 10000 | > 3000 |  |  |
| CN(C(=O)c1ccc2nc(N)c3ccsc3c2c1)C1COC(C)(C)c2cc(C(F)(F)F)ccc21 (stereo not drawn) [Example 3, 4-Amino-N-(1,1-dimethyl-7-(trifluoromethyl)isochroman-4-yl)-N-methylthieno[3,2-c]quinoline-8-carboxamide] | 7540 | 435 |  |  |
| CN(C(=O)c1ccc2nc(N)c3c(c2c1)CCC3)C1COC(C)(C)c2cc(C(F)(F)F)ccc21 (stereo not drawn) [Example 11, 4-Amino-N-(1,1-dimethyl-7-(trifluoromethyl)isochroman-4-yl)-N-methyl-2,3-dihydro-1H-cyclopenta[c]quinoline-8-carboxamide] | 3120 | 147 |  |  |
| CN(C(=O)c1ccc2nc(N)c3c(c2c1)CCCC3)C1COC(C)(C)c2cc(C(F)(F)F)ccc21 (stereo not drawn) [Example 19, 6-Amino-N-(1,1-dimethyl-7-(trifluoromethyl)isochroman-4-yl)-N-methyl-7,8,9,10-tetrahydrophenanthridine-2-carboxamide] | 7210 | 318 |  |  |
| CN(C(=O)c1ccc2nc(N)c3ccccc3c2c1)C1COC(C)(C)c2cc(C(F)(F)F)ccc21 (stereo not drawn) [Example 20, 6-Amino-N-(1,1-dimethyl-7-(trifluoromethyl)isochroman-4-yl)-N-methylphenanthridine-2-carboxamide] | 5870 | 738 |  |  |
| CN(C(=O)c1cc2c(cn1)nc(N)c1cnn(C)c12)C1COC2(CCC2)c2cc(C(F)(F)F)ccc21 (stereo not drawn) [Example 31] | 285 | 6.2 |  |  |
| CN(C(=O)c1ccc2nc(N)c3cnn(C)c3c2c1)C1COC(C)(C)c2cc(-c3cnc4cnccn34)ccc21 (stereo not drawn) [Example 48] | 435 | 7.9 |  |  |
| CN(C(=O)c1ccc2nc(N)c3cnn(C)c3c2c1)C1COC2(CCC2)c2nc(N3CCOCC3)ccc21 (stereo not drawn) [Example 53, 4-amino-N,1-dimethyl-N-(2'-morpholino-5',6'-dihydrospiro[cyclobutane-1,8'-pyrano[3,4-b]pyridin]-5'-yl)-1H-pyrazolo[4,3-c]quinoxaline-8-carboxamide] | > 10000 | 312 |  |  |
| CN(C(=O)c1ccc2nc(N)c3cnn(C)c3c2c1)[C@@H]1COC(C)(C)c2nc(N3CCOCC3)ccc21 [Example 54] | 1810 | 5.8 |  |  |
| CN(C(=O)c1ccc2nc(N)c3cnn(C)c3c2c1)[C@@H]1COC(C)(C)c2cc(N3CCOCC3)ncc21 [Example 55] | > 10000 | 20.2 |  |  |
| CN(C(=O)c1ccc2nc(N)c3cnn(C)c3c2c1)[C@@H]1COC(C)(C)c2cc(N3CC4COCC4C3)ccc21 (stereo partly drawn) [Example 56, 4-Amino-N-((4S)-1,1-dimethyl-7-(tetrahydro-1H-furo[3,4-c]pyrrol-5(3H)-yl)isochroman-4-yl)-N,1-dimethyl-1H-pyrazolo[4,3-c]quinoxaline-8-carboxamide] | 1330 | 4.4 |  |  |
| CN(C(=O)c1ccc2nc(N)c3cnn(C)c3c2c1)[C@@H]1COC(C)(C)c2cc(C3=CCOCC3)ccc21 [Example 57, (S)-4-amino-N-(7-(3,6-dihydro-2H-pyran-4-yl)-1,1-dimethylisochroman-4-yl)-N,1-dimethyl-1H-pyrazolo[4,3-c]quinoxaline-8-carboxamide] | 880 | 5.2 |  |  |
| CN(C(=O)c1ccc2nc(N)c3cnn(C)c3c2c1)[C@@H]1COC(C)(C)c2cc(C3CCOCC3)ccc21 [Example 58, (S)-4-amino-N-(1,1-dimethyl-7-(tetrahydro-2H-pyran-4-yl)isochroman-4-yl)-N,1-dimethyl-1H-pyrazolo[4,3-c]quinoline-8-carboxamide] |  |  | 987 | 5.5 |
| CN(C(=O)c1ccc2nc(N)c3nsnc3c2c1)C1COC2(CCC2)c2cc(C(F)(F)F)ccc21 (stereo not drawn) [Example 59, 4-Amino-N-methyl-N-(7'-(trifluoromethyl)spiro[cyclobutane-1,1'-isochroman]-4'-yl)-[1,2,5]thiadiazolo[3,4-c]quinoline-8-carboxamide] |  |  | 4020 | 3140 |
| CN(C(=O)c1ccc2nc(N)c3nsnc3c2c1)C1COC(C)(C)c2cc(C(F)(F)F)ccc21 (stereo not drawn) [Example 60, 4-Amino-N-(1,1-dimethyl-7-(trifluoromethyl)isochroman-4-yl)-N-methyl-[1,2,5]thiadiazolo[3,4-c]quinoline-8-carboxamide] |  |  | 2950 | > 3000 |
| CN(C(=O)c1ccc2nc(N)c3cnn(C)c3c2c1)C1COC(C)(C)c2cc(N3CCC(F)(F)C3)ccc21 (stereo not drawn) [Example 74, 4-Amino-N-(7-(3,3-difluoropyrrolidin-1-yl)-1,1-dimethylisochroman-4-yl)-N,1-dimethyl-1H-pyrazolo[4,3-c]quinoxaline-8-carboxamide] | 2110 | 10.5 |  |  |
| CN(C(=O)c1ccc2nc(N)c3cnn(C)c3c2c1)[C@@H]1COC(C)(C)c2cc(N3CCC4(CC3)COC4)ccc21 [Example 75, (S)-4-amino-N-(1,1-dimethyl-7-(2-oxa-7-azaspiro[3.5]nonan-7-yl)isochroman-4-yl)-N,1-dimethyl-1H-pyrazolo[4,3-c]quinoxaline-8-carboxamide] | 2610 | 8.2 |  |  |
| CN(C(=O)c1ccc2nc(N)c3cnn(C)c3c2c1)[C@@H]1COC(C)(C)c2cc(N3CC(F)(F)C3)ccc21 [Example 76, (S)-4-amino-N-(7-(3,3-difluoroazetidin-1-yl)-1,1-dimethylisochroman-4-yl)-N,1-dimethyl-1H-pyrazolo[4,3-c]quinoxaline-8-carboxamide] | 2520 | 6.1 |  |  |
| CN(C(=O)c1cc2c(cc1C(F)(F)F)nc(N)c1cnn(C)c12)[C@@H]1COC2(CCC2)c2cc(C(F)(F)F)ccc21 [Example 77] | 1030 | 9.8 |  |  |
| Cn1ncc2c(N)nc3cnc(C(=O)N(C4CC4)C4COC5(CCC5)c5cc(C(F)(F)F)ccc54)cc3c21 (stereo not drawn) [Example 87, 4-Amino-N-cyclopropyl-1-methyl-N-(7'-(trifluoromethyl)spiro[cyclobutane-1,1'-isochroman]-4'-yl)-1H-pyrazolo[4,3-c][1,7]naphthyridine-8-carboxamide] | 763 | 11.2 |  |  |
